Numbers after ± are expanded uncertainties.
Conditions: 101.33 kPa, Liquid, Pycnometric method

COCC(C)OC(C)=O (configuration not stated) [1-methoxy-2-propyl acetate]
mass density (273.15 K): 989.2 ± 4.4 kg/m3
mass density (283.15 K): 978.2 ± 4.3 kg/m3

CCOCCOCCOC(C)=O [2-(2-ethoxyethoxy)ethyl acetate]
mass density (273.15 K): 1030 ± 5.9 kg/m3
mass density (283.15 K): 1020 ± 5.8 kg/m3

CCCCOCCOC(C)=O [2-butoxyethyl acetate]
mass density (273.15 K): 960.4 ± 5.5 kg/m3
mass density (283.15 K): 950.4 ± 5.4 kg/m3

COCCOC(C)=O [2-methoxyethyl ethanoate]
mass density (273.15 K): 1027.8 ± 5.8 kg/m3
mass density (283.15 K): 1016.8 ± 5.8 kg/m3

COC(C)CCOC(C)=O (configuration not stated) [3-methoxybutyl acetate]
mass density (273.15 K): 975.3 ± 4.3 kg/m3
mass density (283.15 K): 965.3 ± 4.3 kg/m3

CCOCCOCCOCC [diethylene glycol diethyl ether]
mass density (273.15 K): 926.4 ± 4.1 kg/m3
mass density (283.15 K): 916.3 ± 4 kg/m3

— the NIST ThermoML archive (doi:10.1016/j.jct.2018.03.009)
